Measured values taken from ChEMBL document CHEMBL3046011, “QSAR analysis of 2-sulfonylphenyl-3-phenyl-indole derivatives as novel anti-inflammatory compounds” (Med Chem Res, 2009).

Molecular target: T1, Prostaglandin G/H synthase 2 (Mus musculus, UniProt Q05769)
T1 sequence (Q05769 whole entry): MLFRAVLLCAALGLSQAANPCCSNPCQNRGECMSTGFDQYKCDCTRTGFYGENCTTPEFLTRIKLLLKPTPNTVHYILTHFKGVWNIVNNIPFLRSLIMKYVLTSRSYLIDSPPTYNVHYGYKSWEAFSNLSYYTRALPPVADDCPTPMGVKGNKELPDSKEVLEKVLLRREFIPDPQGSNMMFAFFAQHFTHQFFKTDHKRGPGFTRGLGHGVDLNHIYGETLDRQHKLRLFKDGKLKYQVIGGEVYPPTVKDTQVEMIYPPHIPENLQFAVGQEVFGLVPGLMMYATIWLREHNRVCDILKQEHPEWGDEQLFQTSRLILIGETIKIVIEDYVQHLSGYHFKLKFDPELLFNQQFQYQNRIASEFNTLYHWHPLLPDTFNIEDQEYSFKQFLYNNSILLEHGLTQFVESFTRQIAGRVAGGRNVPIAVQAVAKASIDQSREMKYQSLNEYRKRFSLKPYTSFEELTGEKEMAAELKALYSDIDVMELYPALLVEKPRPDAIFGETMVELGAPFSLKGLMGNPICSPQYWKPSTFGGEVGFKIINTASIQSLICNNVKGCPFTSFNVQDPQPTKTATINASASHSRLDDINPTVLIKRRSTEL
Test: Inhibition of COX2 in Mus musculus (mouse) peritoneal macrophage

Structure (SMILES)	IC50
CS(=O)(=O)c1ccc(-c2[nH]c3ccccc3c2-c2ccccc2)cc1	0.603 nM
COc1ccc(-c2c(-c3ccc(S(C)(=O)=O)cc3)[nH]c3ccccc23)cc1	0.02 nM
NS(=O)(=O)c1ccc(-c2[nH]c3ccccc3c2-c2ccccc2)cc1	0.0891 nM
Cc1ccc(-c2c(-c3ccc(S(C)(=O)=O)cc3)[nH]c3ccccc23)cc1C	0.17 nM
NS(=O)(=O)c1ccc(-c2[nH]c3ccc(Cl)cc3c2-c2ccccc2)cc1	0.141 nM
CC(=O)NS(=O)(=O)c1ccc(-c2[nH]c3ccccc3c2-c2ccccc2)cc1	0.178 nM

More lines, in order of falling IC50, values ahead:

IC50	Structure (SMILES)
33.1 nM	NS(=O)(=O)c1ccc(-c2[nH]c3ccccc3c2-c2ccc(Cl)cc2)cc1
0.282 nM	Cc1ccc2[nH]c(-c3ccc(S(C)(=O)=O)cc3)c(-c3ccccc3)c2c1
0.02 nM	Cc1ccc2[nH]c(-c3ccc(S(N)(=O)=O)cc3)c(-c3ccccc3)c2c1
